Laboratory results as given in US7067552B2, “Radiosensitizing taxanes and their pharmaceutical preparations” (Florida State University, priority 1995, dated 2006).
Where “and” joins values, the source holds several entries; their conditions need not be identical. Identical values can stand only once. Entries after “also recorded” stand apart in the source; their conditions may differ. Like-named read-outs stand apart in the source and are kept apart here.

Columns and labels:
MTG-B tumor = format: in vivo, C3H/Hej mice
[1] = system: human colon carcinoma (HCT-116) cells; test: In vitro chemotherapeutic activity, colony forming assay, HCT-116 cells; format: cell-based; conditions: at the 1% survival level; 37° C. for 24 hours
Description: (§1) 4.1. In vitro chemotherapeutic activity. Chinese hamster ovary (CHO) and human colon carcinoma (HCT-116) cells were treated with different concentrations of taxol, taxoltere metro, or taxoltere p-nip at 37° C. for 24 hours. Cell survival was evaluated by the colony forming assay.

C3H/HeJ mice [2] = test: In vivo drug toxicity (acute toxicity); conditions: for LD50/5: C3H/HeJ mice
HCT-116 cells = test: In vitro chemotherapeutic radiosensitization, HCT-116 cells; format: cell-based, human; conditions: for sensitizer enhancement ratio (SER): irradiated after two hours incubation; for radiosensitization of HCT-116 cells (in words): different radiation doses
[3] = system: mouse mammary adenocarcinoma (MTG-B); test: In vivo chemotherapeutic activity in MTG-B tumor bearing mice; parameters: species or system C3H/Hej mice
CHO cells = test: In vitro chemotherapeutic radiosensitization, CHO cells; format: cell-based, Chinese hamster; conditions: for sensitizer enhancement ratio (SER): irradiated after two hours incubation; for radiosensitization of CHO cells (in words): different radiation doses
[4] = system: Chinese hamster ovary (CHO) cells; test: In vitro chemotherapeutic activity, colony forming assay, CHO cells; format: cell-based; conditions: at the 50% survival level; 37° C. for 24 hours
Description: as §1

MTG-B mammary tumors = system: MTG-B mammary tumors; parameters: species or system mice; conditions: mouse, in vivo, ip
[5] = In vivo drug toxicity (acute toxicity); conditions: C3H/HeJ, mouse, in vivo, ip
C3H/HeJ mice [6] = conditions: mouse, in vivo

| Compound | tumor doubling time (TDT) (MTG-B tumor; mouse, in vivo, ip) | times more effective than taxol in killing HCT-116 cells [1] | LD50/5 (C3H/HeJ mice [2]; i.p.) | radiosensitization of HCT-116 cells (in words) (HCT-116 cells) | increase of survival time / life span ([3]; mouse, in vivo) | survival time ([3]; mouse, in vivo) | times more effective than taxol under equitoxic conditions ([3]; mouse, in vivo) | tumor doubling times (in words) ([3]; mouse, in vivo) | radiosensitization of CHO cells (in words) (CHO cells) | times more effective than taxol in killing CHO cells [4] | further results |
| --- | --- | --- | --- | --- | --- | --- | --- | --- | --- | --- | --- |
| N-debenzoyl-N-(t-butylcarbamoyl)-7-(metronidazoleoxycarbonyl) taxol [taxoltere metro] | 20.5 days and 29.5 days | about 10 times | 249.67 mg/kg | strongly radiosensitize | 123% | 29 days | 4 times | again greatly extended | strongly radiosensitize | about 15 times | Severe toxic symptoms (constriction of pupils, rough hair) (C3H/HeJ mice [2]; 24 hours after drug administration, high drug dose levels): not; sensitizer enhancement ratio (SER) (HCT-116 cells; 10 nM): 1.2; sensitizer enhancement ratio (SER) (CHO cells; 100 nM): 2.3 |
| N-debenzoyl-N-(t-butylcarbamoyl)-3′-desphenyl-3′-(4-nitrophenyl) taxol [taxoltere p-nip] | 36.5 days and 65 days | about 30 times | 79.13 mg/kg | strongly radiosensitize | 1015% | 145 days | 33 times | even further extended; also recorded: again greatly extended | strongly radiosensitize | about 45 times | tumor doubling time (MTG-B tumor; mouse, in vivo, iv): 52 days; LD50/5 (C3H/HeJ mice [2]; i.v.): 134.16 mg/kg; sensitizer enhancement ratio (SER) (HCT-116 cells; concentration not given): 1.5; cure rate (MTG-B mammary tumors): 40% and 75%; sensitizer enhancement ratio (SER) (CHO cells; concentration not given): 1.6 |
| CC(=O)O[C@H]1C(=O)[C@@]2(C)[C@H]([C@H](OC(=O)c3ccccc3)[C@]3(O)C[C@H](OC(=O)[C@H](O)[C@@H](NC(=O)c4ccccc4)c4ccccc4)C(C)=C1C3(C)C)[C@]1(OC(C)=O)CO[C@@H]1C[C@@H]2O [taxol, reference compound] | – | – | – | does not | – | – | – | – | does not | – | tumor doubling time (TDT) (MTG-B tumor; single dose i.p., 40% of LD50/5, drug alone, control 3.5 days): 14.5 days; tumor doubling time (TDT) (MTG-B tumor; single dose i.p., 40% of LD50/5, plus 22 Gy Xray one day later, 22 Gy alone 8.5 days): 19.5 days; LD50 at 5 days [5]: 141 mg/kg; survival time ([3]; 40% of the LD50/5 dose, MTG-B tumor-bearing mice, control 13 days): 17 days; increase of survival time / life span ([3]; 40% of the LD50/5 dose, versus control 13 days): 31%; Severe toxic symptoms (constriction of pupils, rough hair) (C3H/HeJ mice [6]): observed |
